In patent US9549911B2, “Ginger metabolites and uses thereof” (North Carolina A&T State University, priority 2012, dated 2017):

Assays:
HT-29 colon cancer cells = test: Apoptosis by FACS analysis of propidium iodide-stained cells; format: cell-based, human; settings: HT-29, 40 μM, 24 hours
Procedure: (§1) Apoptosis was determined by FACS analysis of propidium iodide (PI)-stained cells. In brief, cells were trypsinized, washed with cold phosphate-buffered saline (PBS), fixed in ice-cold 70% ethanol for 1 hour, and then resuspended in 2 mL PBS supplemented with 10 μL RNase (100 mg/ml) and incubated at 37° C. for 30 min. After incubation, DNA was stained with 1 mg/mL PI in PBS. Cell staining was analyzed using a Cell Lab Quanta™ SC flow cytometer (Beckman Coulter, Danvers, Mass.) and data were processed using FCS Express software (DeNovo Software, Los Angeles, Calif.). The percentage of apoptotic cells in each sample was determined based on the sub G0 peaks detected in monoparametric histograms.

[1] = test system: HCT-116 colon cancer cells; test: as above; format: cell-based, human; settings: HCT-116, 40 μM, 24 hours
Procedure: as §1

H-1299 cells [2] = test: TUNEL apoptosis assay (Part 2); format: cell-based, human; settings: H-1299, 20 or 40 μM, 24 hours
[3] = test system: human lung cancer cells H-1299; test: MTT growth inhibition by M14 and M15 (Part 3); format: cell-based; settings: H-1299, 24 hours, 0 to 80 μM; read-out: IC50 (cell viability, MTT)
Procedure: (§2) Cell growth inhibition was determined by a MTT colorimetric assay. […] The reading reflected the number of viable cells and was expressed as a percentage of viable cells in the control. Both HCT-116 and H-1299 cells were cultured in McCoy's 5A medium. All of the above media were supplemented with 10% fetal bovine serum, 1% penicillin/streptomycin, and 1% glutamine, and the cells were kept in a 37° C. incubator with 95% humidity and 5% CO2.

[4] = test system: human colon cancer cells HCT-116; test: MTT growth inhibition by M14 and M15 (Part 3); format: cell-based; settings: HCT-116, 24 hours, 0 to 80 μM; read-out: IC50 (cell viability, MTT)
Procedure: as §2

[5] = test system: H-1299 human lung cancer cells; test: MTT growth inhibition of human cancer cells, 24 h (Part 1); format: cell-based; settings: H-1299, 24 h, 0 to 80 μM
Procedure: (§3) The reading reflected the number of viable cells and was expressed as a percentage of viable cells in the control. Both HCT-116 and H-1299 cells were cultured in McCoy's 5A medium. All of the above media were supplemented with 10% fetal bovine serum, 1% penicillin/streptomycin, and 1% glutamine, and the cells were kept in a 37° C. incubator with 95% humidity and 5% CO2.

[6] = test system: HCT-116 human colon cancer cells; test: as above; format: cell-based; settings: HCT-116, 24 h, 0 to 80 μM
Procedure: as §3

HCT-116 cells = test: TUNEL apoptosis assay (Part 1); format: cell-based, human; settings: 24 h
Procedure: (§4) HCT-116 and H-1299 cells were seeded in six-well plates at 1.0×10^5 cells/well and were incubated at 37° C. in a 5% CO2 incubator. After 24 h, fresh media supplemented with DMSO (control), [6]-shogaol (10 or 20 μM), M9 (40 or 80 μM), or M11 (40 or 80 μM) were added to the wells. After 24-h incubation, cells were washed and pretreated for 15 min at room temperature with a solution of 20 μg/ml proteinase K. Cells were then washed twice with PBS pH 7.4 and were fixed for 10 min at room temperature using 10% neutral formaldehyde solution. After two washes in distilled H2O, cells were resuspended in 100 μl of distilled H2O and were applied on silanized microscope slides. Slides were incubated overnight at 37° C. and were washed twice with PBS. Terminal deoxynucleotidyl transferase deoxyuridine triphosphate nick-end labeling (TUNEL) assay was then performed according to the manufacturer's protocol. Cells were observed under 400× power using a Zeiss A1 microscope (Carl Zeiss, Inc., Thornwood, N.Y.).
(§5) Ten fields per slide were evaluated, and TUNEL-positive cells (with brown coloration in the nucleus) were expressed as a percentage of the total number of cells contained in a field. Statistical Analysis. For simple comparisons between two groups, twotailed Student's t test was used. A p value of less than 0.05 was considered statistically significant in all the tests.

H-1299 cells [7] = test: TUNEL apoptosis assay (Part 1); format: cell-based, human; settings: 24 h
Procedure: as §4, §5

[8] = Kinetic study of [6]-shogaol metabolism to M6 in liver microsomes; format: in vitro ADME, rat; settings: rat liver microsomes 0.1 mg/mL, 30 min
Procedure: All incubations were performed in triplicate.

[9] = test system: HCT-116, HT-29, H-1299, and CL-13 cancer cell lines; test: Metabolism of [6]-shogaol in cancer cells; format: in vitro ADME; settings: 10 μM, HCT-116, HT-29, H-1299, CL-13, up to 24 h
Procedure: Cells (1.0×10^6) were plated in six-well culture plates and were allowed to attach for 24 h at 37° C. in 5% CO2 incubator. [6]-Shogaol [in dimethyl sulfoxide (DMSO)] was added to McCoy's 5A medium (containing 10% fetal bovine serum, 1% penicillin/streptomycin, and 1% glutamine) to reach a final concentration of (10 μM) and was incubated with different cancer cell lines (HCT-116, HT-29, H-1299, and CL-13). At different time points (0, 30 min, 1, 2, 4, 6, 8, and 24 h), 190-μl samples of supernatant were taken and transferred to vials containing (10 μl) of 0.2% ascorbic acid to stabilize [6]-shogaol and its metabolites. The metabolites were extracted from media by addition of equal volume of acetonitrile and centrifugation, in which the supernatant was harvested. The samples were then diluted 5-fold in acetonitrile and were analyzed by HPLC ECD.

SMILES | apoptotic cells (FACS, PI) (HT-29 colon cancer cells) [%] | apoptotic cells (FACS, PI) [1] [%] | induction of apoptosis (TUNEL) versus DMSO (H-1299 cells [2]) | IC50 [3] [µM] | IC50 [4] [µM] | IC50 [5] [µM] | IC50 [6] [µM] | apoptotic cells (TUNEL) (HCT-116 cells; HCT-116, 10 μM) [%] | apoptotic cells (TUNEL) (HCT-116 cells; HCT-116, 20 μM) [%] | apoptotic cells (TUNEL) (H-1299 cells [7]; H-1299, 10 μM) [%] | apoptotic cells (TUNEL) (H-1299 cells [7]; H-1299, 20 μM) [%] | Vmax of M6 formation [8] | metabolism in cancer cell lines [9]
CCCCCC(CC(=O)CCc1ccc(O)c(OC)c1)SC[C@H](N)C(=O)O (stereo partly shown) [M2, 5-cysteinyl-[6]-shogaol] | 14.38 | 26.34 | Apoptosis was observed | – | – | – | – | – | – | – | – | – | –
CCCCC/C=C/C(=O)CCc1ccc(O)c(OC)c1 [[6]-shogaol, reference compound] | – | – | – | 17.3 | 19.9 | 16.9 | 18.7 | 10.3 | 31.2 | 5.2 | 31.6 | 8.19+/−0.48 nanomoles per minute per milli | extensively metabolized
